Data from PMC10743905, “Design, Synthesis, and In Vitro and In Vivo Bioactivity Studies of Hydrazide–Hydrazones of 2,4-Dihydroxybenzoic Acid” (International Journal of Molecular Sciences, 2023).
Converted amounts (≈) assume the structure as drawn. Like-named read-outs stand apart in the source and are kept apart here.

What was measured:
Experiment in all cases: Broth microdilution MIC/MBC
Format in all cases: cell-based
[1] = tested on: Bacillus subtilis ATCC 6633
Description: Detailed procedures are presented in the Supplementary Materials. […]
(§1) In vitro antimicrobial activity assays - Methodology
(§2) The examined compounds 1 - 24 were screened in vitro for antibacterial and antifungal activities using the broth microdilution method according to procedure reported earlier by our research group and European Committee on Antimicrobial Susceptibility Testing (EUCAST) and Clinical and Laboratory Standards Institute (CLSI) guidelines against a panel of reference and clinical or saprophytic strains of microorganisms, in-cluding Gram-positive bacteria, Staphylococcus aureus ATCC 43300 (Methicillin Resistant S. aureus – MRSA), Staphylococcus aureus ATCC 29213 (Methicillin Susceptible S. aureus – MSSA), Staphylococcus epidermidis ATCC 12228, Enterococcus faecalis ATCC 29212, Micro-coccus luteus ATCC 10240, Bacillus subtilis ATCC 6633 and Bacillus cereus ATCC 10876), Gram-negative bacteria (Bordetella bronchiseptica ATCC 4617, Escherichia coli ATCC 25922, Klebsiella pneumoniae ATCC 13883, Proteus mirabilis ATCC 12453, Salmonella typhimurium ATCC 14028 and Pseudomonas aeruginosa ATCC 9027) and fungi belonging to yeasts (Can-dida albicans ATCC 10231, Candida albicans ATCC 2091, Candida parapsilosis ATCC 22019, Candida glabrata ATCC 90030 and Candida krusei ATCC 14243). The microorganisms be-longing to ATCC came from American Type Culture Collection, routinely used for the evaluation of antimicrobials. All the used microbial cultures were first subcultured on nu-trient agar or Sabouraud agar at 35°C for 18-24 h or 30°C for 24-48 h for bacteria and fungi, […]
(§3) The surface of Mueller-Hinton agar (for bacteria) and RPMI 1640 with MOPS (for fungi) were inoculated with the suspensions of bacterial or fungal species. Microbial suspensions were prepared in sterile saline with an optical density of McFarland standard scale 0.5.
(§4) Samples containing examined compounds were dissolved in dimethyl sulfoxide (DMSO).
(§5) Furthermore, bacterial and fungal suspensions were put onto Petri dishes with solid me-dia containing 2 mg/mL of the tested compounds followed incubation at 37°C for 24h and 30°C for 48h for bacteria and fungi, respectively. The inhibition of microbial growth was judged by comparison with a control culture prepared without any sample tested. Ciprof-loxacin, vancomycin, nitrofurantoin, cefuroxime, ampicillin or nystatin (Sigma) were used as a reference antibacterial or antifungal compounds, respectively.
(§6) Subsequently, the MIC (Minimal Inhibitory Concentration) of the compounds was ex-amined by the microdilution broth method, using their two-fold dilutions in Mueller- […]
(§7) Hinton broth or (for bacteria) and RPMI 1640 broth with MOPS (for fungi) prepared in 96-well polystyrene plates. Final concentrations of the compounds ranged from 1000 to 0.488 µg/ml. Microbial suspensions were prepared in 0.85% NaCl with an optical density of 0.5 McFarland standard. Next each bacterial or fungal suspension was added per each well containing broth and various concentrations of the examined compounds. After incuba-

[2] = tested on: Micrococcus luteus ATCC 10240
Description: as §1
as §2, with “antimicrobials.” for “antimicrobials. All the used microbial cultures were first subcultured on nu-trient agar or Sabouraud agar at 35°C for 18-24 h or 30°C for 24-48 h for bacteria and fungi,”
(§8) Samples containing examined compounds were dissolved in dimethyl sulfoxide (DMSO). […]
as §6, §7

[3] = tested on: Staphylococcus epidermidis ATCC 12228; conditions: ATCC12228, read-out: MIC
Description: as §1
as §2, with “antimicrobials.” for “antimicrobials. All the used microbial cultures were first subcultured on nu-trient agar or Sabouraud agar at 35°C for 18-24 h or 30°C for 24-48 h for bacteria and fungi,”
as §8, §6, §7

[4] = tested on: Bacillus cereus ATCC 10876
Description: as §1, §2, §3, §4, §5, §6, §7

[5] = tested on: Salmonella typhimurium ATCC 14028
Description: as §1
as §2, with “antimicrobials.” for “antimicrobials. All the used microbial cultures were first subcultured on nu-trient agar or Sabouraud agar at 35°C for 18-24 h or 30°C for 24-48 h for bacteria and fungi,”
as §8, §6, §7

| MIC [1] | MIC ([1]; ATCC6633, read-out: MIC) | MIC [2] | MIC ([2]; ATCC10240, read-out: MIC) | MIC [3] | MIC [4] | MIC ([4]; ATCC10876, read-out: MIC) | MBC/MIC [5] | MIC ([5]; Salmonella enterica) | SMILES | MBC ([5]; Salmonella enterica) |
| --- | --- | --- | --- | --- | --- | --- | --- | --- | --- | --- |
| 62.5 µg/mL (≈ 179 µM) | 62.5 µg/mL (≈ 179 µM) | – | – | – | – | – | – | – | CC1(C)S[C@@H]2[C@H](NC(=O)[C@H](N)c3ccccc3)C(=O)N2[C@H]1C(=O)O [APC, ampicillin, reference compound] | – |
| 15.62 µg/mL (≈ 36.8 µM) | 15.6 µg/mL (≈ 36.8 µM) | 0.98 µg/mL (≈ 2.31 µM) | 0.98 µg/mL (≈ 2.31 µM) | 0.24 µg/mL (≈ 0.566 µM) | 31.25 µg/mL (≈ 73.6 µM) | 31.2 µg/mL (≈ 73.6 µM) | – | – | CO/N=C(\C(=O)N[C@@H]1C(=O)N2C(C(=O)O)=C(COC(N)=O)CS[C@H]12)c1ccco1 [CFX, cefuroxime, reference compound] | – |
| – | – | – | – | – | – | – | 1 | 0.06 µg/mL (≈ 0.181 µM) | O=C(O)c1cn(C2CC2)c2cc(N3CCNCC3)c(F)cc2c1=O [CIP, ciprofloxacin, reference compound] | 0.06 µg/mL (≈ 0.181 µM) |
